# Source: ChEMBL document CHEMBL1131265, “The de novo design and synthesis of cyclic urea inhibitors of factor Xa: initial SAR studies” (Bioorg Med Chem Lett, 1998)
# Key:
# [1] = target: T1, Serine protease 1 (Homo sapiens, UniProt P07477); test: Compound was tested for inhibition of trypsin.
# [2] = target: Coagulation factor X (Homo sapiens, UniProt P00742); test: Compound was tested for inhibition of blood coagulation factor X
# [3] = target: Prothrombin (Homo sapiens, UniProt P00734); test: Compound was tested for inhibition of thrombin.; set-up: species or system Oryctolagus cuniculus
# [4] = target: T1, Serine protease 1; test: Compound was tested for inhibition of trypsin
# Chain of Coagulation factor X (P00742 41-179 limits assumed): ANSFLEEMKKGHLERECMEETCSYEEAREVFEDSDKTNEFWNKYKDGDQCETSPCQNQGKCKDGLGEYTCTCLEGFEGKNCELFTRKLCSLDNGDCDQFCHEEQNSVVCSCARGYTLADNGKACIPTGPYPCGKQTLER
# Chain of Coagulation factor X (P00742 235-488 limits assumed): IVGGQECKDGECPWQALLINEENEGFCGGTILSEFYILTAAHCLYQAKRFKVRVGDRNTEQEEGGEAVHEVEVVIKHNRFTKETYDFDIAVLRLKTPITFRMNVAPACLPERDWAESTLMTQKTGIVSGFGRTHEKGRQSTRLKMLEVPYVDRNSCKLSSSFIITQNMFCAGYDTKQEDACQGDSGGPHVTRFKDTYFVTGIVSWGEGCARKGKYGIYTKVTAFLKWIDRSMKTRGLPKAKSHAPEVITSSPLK
# T1 sequence (P07477 whole entry): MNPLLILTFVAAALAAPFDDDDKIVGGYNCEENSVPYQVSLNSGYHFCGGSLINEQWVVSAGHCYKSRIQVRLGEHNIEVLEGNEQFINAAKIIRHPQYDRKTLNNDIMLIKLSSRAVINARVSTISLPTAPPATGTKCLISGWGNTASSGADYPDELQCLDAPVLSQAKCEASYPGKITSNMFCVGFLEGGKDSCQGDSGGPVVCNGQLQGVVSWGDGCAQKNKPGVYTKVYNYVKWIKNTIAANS
SMILES,Ki [1] [nM],Ki [2] [nM],Ki [3] [nM],Ki [4] [nM]
N=C(N)c1ccc(N2CCCCN(c3cccc(C(=N)N)c3)C2=O)cc1,120,800,9300,–
N=C(N)c1cccc(NC(=O)NC2CCN(Cc3ccccc3)CC2)c1,> 1200,4900,> 21000,–
N=C(N)c1ccc(N2CCCCN(C3CCN(Cc4ccccc4)CC3)C2=O)cc1,> 1600,7500,> 21000,–
CC(=N)N1CC[C@H](Oc2ccc(C(Cc3ccc4ccc(C(=N)N)cc4c3)C(=O)O)cc2)C1 (some centres undefined),–,–,–,1100

# Now from value to compound:
Ki [1] [nM],Ki [2] [nM],Ki [3] [nM],Ki [4] [nM],SMILES
–,2100,11000,–,N=C(N)c1cccc(N2CCN(C3CCN(Cc4ccccc4)CC3)C2=O)c1
–,400,7300,–,N=C(N)c1cccc(N2CCCN(C3CCN(Cc4ccccc4)CC3)C2=O)c1
282,102,2000,–,N=C(N)c1cccc(N2CCCCN(C3CCN(Cc4ccccc4)CC3)C2=O)c1
–,2500,> 21000,–,N=C(N)c1cccc(N2CCCCN(C3CCN(C(=N)N)CC3)C2=O)c1
